{ppp} = triphosphate
Experiments:
HBV cccDNA [1] = experiment: HBV cccDNA formation in infected differentiated HepaRG cells (Southern blot, RT-qPCR); assay type: cell-based, HBV (Genotype D); conditions: HBV 1000 Geq/cell, harvested 3 dpi; for IC50: read-out: IC50, decline of cccDNA relative to DMSO treated controls; for IC90: read-out: IC90, decline of cccDNA relative to DMSO treated controls
Description: (§1) The scheme illustrates the schedule with HBV inoculum (1000 Geq/cell) and administration of Cyclosporin A (CsA), F7, X-RNA and poly-U/UC PAMP. 2.5% DMSO was added to the medium at 1 day post infection (Dpi). cccDNA and PF RC DNA were harvested from HepG2-hNTCP cells using Hirt extraction method and analyzed by Southern blot analysis using an HBV-specific DNA probe. Viral protein-free DNAs (protein-free Relaxed Circular DNA [PF-RC DNA] and cccDNA) are noted. (2B and 2C) HepG2-hNTCP 2(B) or differentiated HepaRG cells (2C) were infected with HBV at moi of 1000 Geq/cell, and administered CsA (10 μM) or F7, in the indicated concentrations. For upper panels of (2B) and (2C), DNAs were isolated after Hirt extraction at 3 dpi and subjected to Southern blot analysis using as HBV-DNA probe. […] (2D and 2E) HepG2-hNTCP (2D) or dHepaRG cells (2E) were infected with HBV at an moi of 1000 Geq/cell, and administered CsA (10 μM), X-RNA (100 ng/ml), or poly-U/UC PAMP in the indicated concentrations. For upper panels of (2D) and (2E), DNAs were analyzed using Southern blot analysis. For lower panels of (2D) and (2E), DNAs were analyzed by RT-qPCR. IC90, and IC50 values were calculated based on the decline of the cccDNA relative to DMSO treated controls. IC90, and IC50 values are the average of three experiments±one standard deviation. […] Positions of mass markers are indicated on each Southern blot.
(§2) HBV infection HBV (Genotype D) was purified from the supernatant of HepAD38 cells by PEG concentration and subsequent sucrose gradient, as described previously (Ko, C., et al. (2014). DDX3 DEAD-Box RNA Helicase Is a Host Factor That Restricts Hepatitis B Virus Replication at the Transcriptional Level. Journal of Virology 88, 13689-13698; Watashi, K., et al. (2013), supra). For HBV infection cells were seeded into collagen-coated plates. One day later, the cells were infected with HBV in DMEM containing 4% polyethylene glycol 8000 (PEG-8000). The multiplicities of infection (expressed as virus genome equivalent/cell) are indicated in each Figure Legend. The inocula were removed 24 hours later, and the infected cultures were maintained in complete DMEM containing 2.5% DMSO until harvesting, as described previously (Ni, Y., et al. (2014). Hepatitis B and D viruses exploit sodium taurocholate co-transporting polypeptide for species-specific entry into hepatocytes. Gastroenterology 146, 1070-1083).
Reverse transcription quantitative real time qPCR (RT-qPCR) analysis: Total cellular RNAs were extracted from cells using TRIZOL reagent and the manufacturers protocol (Invitrogen). cDNA was synthesized from the purified RNA by both random and oligo (dT) priming using iScript select cDNA synthesis kit (Biorad, Inc.). […]

HBV cccDNA [2] = experiment: HBV cccDNA formation in infected HepG2-hNTCP cells (Hirt extraction, Southern blot, RT-qPCR); assay type: cell-based, HBV (Genotype D); conditions: harvested 3 dpi; for level of protein free-relaxed circular (PF-RC) DNA, Southern blot / HBV cccDNA formation, Southern blot: HepG2-hNTCP, treated following HBV infection; for HBV cccDNA formation, Southern blot: versus DMSO or X-RNA controls; for IC50 / IC90: HBV 1000 Geq/cell; for IC50: read-out: IC50, decline of cccDNA relative to DMSO treated controls; for IC90: read-out: IC90, decline of cccDNA relative to DMSO treated controls
Description: as §1
To determine how IRF3 activation impacts HBV infection and production of cccDNA in infected cells, HepG2-hNTCP cells were treated with F7 or poly-U/UC PAMP (100 ng/ml [=2.94 nM] or 200 ng/ml [=5.87 nM]) following HBV infection. Cyclosporin A (CsA) treatment was employed as an HBV entry inhibitor antiviral control (Watashi, K., et al. (2014). Cyclosporin A and its analogs inhibit hepatitis B virus entry into cultured hepatocytes through targeting a membrane transporter, sodium taurocholate cotransporting polypeptide (NTCP). Hepatology (Baltimore, Md.) 59, 1726-1737). Cells were harvested 3 days post-infection (dpi) and extracts were prepared using Hirt extraction methods for isolating protein-free DNA, as shown in FIG. 2A (Guo, H., et al. (2007). Characterization of the Intracellular Deproteinized Relaxed Circular DNA of Hepatitis B Virus: an Intermediate of Covalendy Closed Circular DNA Formation. Journal of Virology 81, 12472-12484 Hirt, B. (1967). Selective extraction of polyoma DNA from infected mouse cell cultures. Journal of molecular biology 26, 365-369).
as §2
Reverse transcription quantitative real time qPCR (RT-qPCR) analysis: Total cellular RNAs were extracted from cells using TRIZOL reagent and the manufacturers protocol (Invitrogen). cDNA was synthesized from the purified RNA by both random and oligo (dT) priming using iScript select cDNA synthesis kit (Biorad, Inc.). For HBV cccDNA expression analysis, total DNA was extracted using the DNeasy kit (QIAGEN).

IRF3 = experiment: Immunoblot of IRF3 phosphorylation and IFIT1 expression; assay type: cell-based, human; conditions: HepG2-hNTCP and dHepaRG cells, 24 and 48 hours, dose-dependent
[3] = Hepatitis B virus, differentiated HepaRG cells
[4] = Hepatitis B virus, HepG2-hNTCP cells

Molecule | IC50 (HBV cccDNA [1]; [3]) [nM] | IC90 (HBV cccDNA [1]; [3]) [µM] | level of protein free-relaxed circular (PF-RC) DNA, Southern blot (HBV cccDNA [2]) | HBV cccDNA formation, Southern blot (HBV cccDNA [2]) | IC50 (HBV cccDNA [2]; [4]) [µM] | IC90 (HBV cccDNA [2]; [4]) [µM] | IRF3 phosphorylation and IFIT1 expression (IRF3) | IC50 (HBV cccDNA [1]; dHepaRG cells) [nM] | IC90 (HBV cccDNA [1]; dHepaRG cells) [µM] | IC50 (HBV cccDNA [2]; HepG2-NTCP cells) [µM] | IC90 (HBV cccDNA [2]; HepG2-NTCP cells) [µM]
O=C(Nc1ccc2nc(NC(=O)c3ccc4ccccc4c3)sc2c1)c1ccccc1 [F7, N-(6-benzamido-1,3-benzothiazol-2-yl)naphthalene-2-carboxamide] | ~3380 | ~12.8 | markedly decreased | suppressed HBV cccDNA formation | ~8.48 | ~17.4 | specifically induced IRF3 phosphorylation and the expression of IFIT1 |  |  |  | 
poly-U/UC PAMP: ~100 nt PAMP motif from the HCV genome comprising 5′ppp and the poly U/UC region, recognized by RIG-I; formulated in liposome (nucleic acid, RNA, 5' {ppp}, backbone and methylation of C not given here; formulated in liposome, ~100 nt PAMP motif from the HCV genome comprising 5′ppp and the poly U/UC region, recognized by RIG-I; formulated in liposome) GGCCAUCCUGUUUUUUUCCCUUUUUUUUUUUCUUUUUUUUUUUUUUUUUUUUUUUUUUUUUUUUUUCUCCUUUUUUUUUCCUCUUUUUUUCCUUUUCUUUCCUUU |  |  | markedly decreased | suppressed HBV cccDNA formation |  |  | specifically induced IRF3 phosphorylation and the expression of IFIT1 | ~1.61 | ~0.0033 | ~0.00194 | ~0.012

— US20220241314A1, “COMPOSITIONS AND METHODS FOR TREATMENT OF HEPATITIS B VIRUS INFECTION” (priority 2019, published 2022)
